# Experimental data from patent US8541460B2, “PDK-1/Akt signaling inhibitors” (The Ohio State University, priority 2003, dated 2013).
# What was measured:
# OVCAR-3 = assay: NCI DTP cell line screen (SRB), Ovarian Cancer; assay type: cell-based
# Method: (§1) Screening of compounds 70 and 71 against several cancer cell lines The human tumor cell lines of the cancer screening panel are grown in RPMI 1640 medium containing 5% fetal bovine serum and 2 mM L-glutamine. For a typical screening experiment, cells are inoculated into 96 well microtiter plates in 100 μL at plating densities ranging from 5,000 to 40,000 cells/well depending on the doubling time of individual cell lines. After cell inoculation, the microtiter plates are incubated at 37° C., 5% CO2, 95% air and 100% relative humidity for 24 h prior to addition of experimental drugs.
# (§2) After 24 h, two plates of each cell line are fixed in situ with TCA, to represent a measurement of the cell population for each cell line at the time of drug addition (Tz). Experimental drugs are solubilized in dimethyl sulfoxide at 400-fold the desired final maximum test concentration and stored frozen prior to use. At the time of drug addition, an aliquot of frozen concentrate is thawed and diluted to twice the desired final maximum test concentration with complete medium containing 50 μg/ml gentamicin. Additional four, 10-fold or ½ log serial dilutions are made to provide a total of five drug concentrations plus control. Aliquots of 100 μl of these different drug dilutions are added to the appropriate microtiter wells already containing 100 μl of medium, resulting in the required final drug concentrations.
# (§3) Following drug addition, the plates are incubated for an additional 48 h at 37° C., 5% CO2, 95% air, and 100% relative humidity. For adherent cells, the assay is terminated by the addition of cold TCA. Cells are fixed in situ by the gentle addition of 50 μl of cold 50% (w/v) TCA (final concentration, 10% TCA) and incubated for 60 minutes at 4° C. The supernatant is discarded, and the plates are washed five times with tap water and air dried. Sulforhodamine B (SRB) solution (100 μl) at 0.4% (w/v) in 1% acetic acid is added to each well, and plates are incubated for 10 minutes at room temperature. After staining, unbound dye is removed by washing five times with 1% acetic acid and the plates are air dried. Bound stain is subsequently solubilized with 10 mM trizma base, and the absorbance is read on an automated plate reader at a wavelength of 515 nm. For suspension cells, the methodology is the same except that the assay is terminated by fixing settled cells at the bottom of the wells by gently adding 50 μl of 80% TCA (final concentration, 16% TCA). Using the seven absorbance measurements [time zero, (Tz), control growth, (C), and test growth in the presence of drug at the five concentration levels (Ti)], the percentage growth is calculated at each of the drug concentrations levels. Percentage growth inhibition is calculated as: [(Ti−Tz)/(C−Tz)]×100 for concentrations for which Ti>/=Tz [(Ti−Tz)/Tz]×100 for concentrations for which Ti<Tz
# (§4) Three dose response parameters are calculated for each experimental agent. […] The drug concentration resulting in total growth inhibition (TGI) is calculated from Ti=Tz. […] Values are calculated for each of these three parameters if the level of activity is reached; however, if the effect is not reached or is exceeded, the value for that parameter is expressed as greater or less than the maximum or minimum concentration tested.
# (§5) The methods described were used to test compounds 70 and 71 on a panel of sixty cell lines under a screening service provided by the Developmental Therapeutics Program at the National Institutes of Health. Shown in FIG. 1C are 1, RPMI-8226 leukemia cells; 2; NCI-H322M non-small cell lung cancer cells; 3, HT29 colon cancer cells; 4, U251 CNS cancer cells; 5, SK-MEL-28 melanoma cancer cells; 6, SK-OV-3 ovarian cancer cells; 7, RXF 393 renal cancer cells; 8, PC-3 prostate cancer cells; 9, MDA-MB-231 breast cancer cells.
# OVCAR-5 = assay: NCI DTP cell line screen (SRB), Ovarian Cancer; assay type: cell-based
# Method: as §1, §2, §3, §4, §5
# OVCAR-4 = assay: NCI DTP cell line screen (SRB), Ovarian Cancer; assay type: cell-based
# Method: as §1, §2, §3, §4, §5
# OVCAR-8 = assay: NCI DTP cell line screen (SRB), Ovarian Cancer; assay type: cell-based; settings: OVCAR-8
# Method: as §1, §2, §3, §4, §5
# IGROV1 = assay: NCI DTP cell line screen (SRB), Ovarian Cancer; assay type: cell-based
# Method: as §1, §2, §3, §4, §5
# UO-31 = assay: NCI DTP cell line screen (SRB), Renal Cancer; assay type: cell-based, human
# Method: as §1, §2, §3, §4, §5
# RXF 393 = assay: NCI DTP cell line screen (SRB), Renal Cancer; assay type: cell-based, human; settings: RXF 393
# Method: as §1, §2, §3, §4, §5
# [1] = tested on: sixty human tumor cell lines; assay: NCI DTP screen, means over sixty human tumor cell lines; assay type: cell-based; settings: two-day treatment
# Method: as §1, §2
# Following drug addition, the plates are incubated for an additional 48 h at 37° C., 5% CO2, 95% air, and 100% relative humidity. For adherent cells, the assay is terminated by the addition of cold TCA. Cells are fixed in situ by the gentle addition of 50 μl of cold 50% (w/v) TCA (final concentration, 10% TCA) and incubated for 60 minutes at 4° C. […] Bound stain is subsequently solubilized with 10 mM trizma base, and the absorbance is read on an automated plate reader at a wavelength of 515 nm. […] Using the seven absorbance measurements [time zero, (Tz), control growth, (C), and test growth in the presence of drug at the five concentration levels (Ti)], the percentage growth is calculated at each of the drug concentrations levels. Percentage growth inhibition is calculated as: [(Ti−Tz)/(C−Tz)]×100 for concentrations for which Ti>/=Tz [(Ti−Tz)/Tz]×100 for concentrations for which Ti<Tz
# as §4, with “tested. […]” for “tested.”
# HCT-15 = assay: NCI DTP cell line screen (SRB), Colon Cancer; assay type: cell-based
compound,measurement,setting,value
"NCC(=O)Nc1ccc(-n2nc(C(F)(F)F)cc2-c2ccc3c(ccc4ccccc43)c2)cc1 [Compound 70, 2-Amino-N-{4-[5-(2-phenanthrenyl)-3-(trifluoromethyl)-1H-pyrazol-1-yl]-phenyl}-acetamide]",TGI,OVCAR-3,3.32E−06
same,Percent Growth,OVCAR-3; Log10 Concentration −4.0,−35%
same,Percent Growth,OVCAR-3; Log10 Concentration −5.0,−70%
same,Percent Growth,OVCAR-3; Log10 Concentration −6.0,76%
same,Percent Growth,OVCAR-3; Log10 Concentration −7.0,83%
same,Percent Growth,OVCAR-3; Log10 Concentration −8.0,89%
same,TGI,OVCAR-5,3.32E−06
same,Percent Growth,OVCAR-5; Log10 Concentration −4.0,−71%
same,Percent Growth,OVCAR-5; Log10 Concentration −5.0,−83%
same,Percent Growth,OVCAR-5; Log10 Concentration −6.0,90%
same,Percent Growth,OVCAR-5; Log10 Concentration −7.0,103%
same,Percent Growth,OVCAR-5; Log10 Concentration −8.0,97%
same,TGI,OVCAR-4,3.41E−06
same,Percent Growth,OVCAR-4; Log10 Concentration −4.0,−68%
same,Percent Growth,OVCAR-4; Log10 Concentration −5.0,−82%
same,Percent Growth,OVCAR-4; Log10 Concentration −6.0,94%
same,Percent Growth,OVCAR-4; Log10 Concentration −7.0,92%
same,Percent Growth,OVCAR-4; Log10 Concentration −8.0,99%
same,TGI,OVCAR-8,4.05E−06
same,Percent Growth,OVCAR-8; Log10 Concentration −4.0,−24%
same,Percent Growth,OVCAR-8; Log10 Concentration −5.0,−33%
same,Percent Growth,OVCAR-8; Log10 Concentration −6.0,51%
same,Percent Growth,OVCAR-8; Log10 Concentration −7.0,102%
same,Percent Growth,OVCAR-8; Log10 Concentration −8.0,97%
same,TGI,IGROV1,3.97E−06
same,Percent Growth,IGROV1; Log10 Concentration −4.0,−35%
same,Percent Growth,IGROV1; Log10 Concentration −5.0,−49%
same,Percent Growth,IGROV1; Log10 Concentration −6.0,74%
same,Percent Growth,IGROV1; Log10 Concentration −7.0,107%
same,Percent Growth,IGROV1; Log10 Concentration −8.0,97%
same,Percent Growth,UO-31; Log10 Concentration −4.0,−36%
same,Percent Growth,UO-31; Log10 Concentration −5.0,−64%
same,Percent Growth,UO-31; Log10 Concentration −6.0,68%
same,Percent Growth,UO-31; Log10 Concentration −7.0,84%
same,Percent Growth,UO-31; Log10 Concentration −8.0,84%
same,TGI,UO-31; in M (unit assumed),3.29E−06
same,Percent Growth,RXF 393; Log10 Concentration −4.0,10%
same,Percent Growth,RXF 393; Log10 Concentration −5.0,−56%
same,Percent Growth,RXF 393; Log10 Concentration −6.0,56%
same,Percent Growth,RXF 393; Log10 Concentration −7.0,75%
same,Percent Growth,RXF 393; Log10 Concentration −8.0,91%
same,mean TGI among the sixty cell lines,[1],3.2 µM
same,TGI,HCT-15,3.19E−06
same,Percent Growth,HCT-15; Log10 Concentration −5.0,−47%
same,Percent Growth,HCT-15; Log10 Concentration −6.0,47%
same,Percent Growth,HCT-15; Log10 Concentration −7.0,54%
same,Percent Growth,HCT-15; Log10 Concentration −8.0,81%
